Measurements from ChEMBL document CHEMBL1201862, “PubChem BioAssay data set” (2004).
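Step 1: Grow cells in 96-well plates. Step 2: Expose to compound for 48 hours at 5 concentrations. Step 3: Interpolate endpoints linearly; if unreached, use highest concentration. GI50 marks 50% less growth.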 Calls of active or inactive are those of the source. Cut-off read from the data, not from the text of the source: active = GI50 up to about 1.1 µM and inactive = higher.

What was measured:
Test in all cases: growth of human tumour cells (NCI), 48 h
IGROV-1 = system: IGROV-1
SK-MEL-5 = system: SK-MEL-5
EKVX = system: EKVX
K562 = system: K562
OVCAR-8 = system: OVCAR-8
SN12C = system: SN12C
SW-620 = system: SW-620
A549 = system: A549
SNB-19 = system: SNB-19
SK-OV-3 = system: SK-OV-3
SF-295 = system: SF-295
RPMI-8226 = system: RPMI-8226
M14 = system: M14
SF-539 = system: SF-539
T47D = system: T47D
KM12 = system: KM12
UO-31 = system: UO-31
SNB-75 = system: SNB-75
UACC-62 = system: UACC-62

Measured: GI50

COC(=O)c1c(O)ccc2c1c1c(n2Cc2ccccc2)C(=O)c2ccccc2C1=O
inactive: IGROV-1 12.6 µM | SK-MEL-5 16.1 µM | EKVX 20.6 µM | K562 11.8 µM | OVCAR-8 12.2 µM | SN12C 13.9 µM | SW-620 19.2 µM | A549 7.76 µM | SNB-19 14.9 µM | SK-OV-3 16.1 µM | SF-295 19.4 µM | RPMI-8226 8.55 µM | M14 20.4 µM | SF-539 15.6 µM | T47D 12.9 µM | KM12 12.9 µM | UO-31 10.3 µM | SNB-75 15.6 µM

O=C(CP(=O)(c1ccccc1)c1ccccc1)c1cccc(C(=O)CP(=O)(c2ccccc2)c2ccccc2)c1
inactive: IGROV-1 55.2 µM | UACC-62 > 100 µM | SK-MEL-5 > 100 µM | EKVX 56.8 µM | K562 > 100 µM | OVCAR-8 43.1 µM | SN12C > 100 µM | SW-620 > 100 µM | A549 > 100 µM | SNB-19 29.2 µM | SK-OV-3 23.3 µM | SF-295 14.6 µM | RPMI-8226 > 100 µM | M14 > 100 µM | SF-539 29.7 µM | T47D 76 µM | KM12 > 100 µM | UO-31 20.3 µM | SNB-75 20.4 µM

CCCC[S+]([O-])CCC(N)P(=O)(O)O (configuration not stated)
inactive: IGROV-1 > 100 µM | UACC-62 > 100 µM | SK-MEL-5 > 100 µM | EKVX > 100 µM | K562 > 100 µM | OVCAR-8 > 100 µM | SN12C > 100 µM | SW-620 > 100 µM | A549 > 100 µM | SNB-19 > 100 µM | SK-OV-3 > 100 µM | SF-295 > 100 µM | RPMI-8226 > 100 µM | M14 > 100 µM | T47D > 100 µM | KM12 > 100 µM | UO-31 > 100 µM | SNB-75 > 100 µM

C=CC1CN(C(=O)OCC)N(C(=O)OCC)C1CCc1ccccc1 (configuration not stated)
inactive: IGROV-1 81.8 µM | UACC-62 > 100 µM | SK-MEL-5 64.1 µM | EKVX 72.4 µM | K562 50.8 µM | OVCAR-8 > 100 µM | SN12C > 100 µM | A549 57.8 µM | SNB-19 > 100 µM | SK-OV-3 > 100 µM | SF-295 58.6 µM | RPMI-8226 30.9 µM | M14 > 100 µM | T47D 33.3 µM | KM12 71.6 µM | UO-31 74.1 µM | SNB-75 68.9 µM
